Measurements reported in ChEMBL document CHEMBL4480429, “Discovery of (S)-6-methoxy-chroman-3-carboxylic acid (4-pyridin-4-yl-phenyl)-amide as potent and isoform selective ROCK2 inhibitors” (Bioorg Med Chem, 2019).

Columns and labels:
[1] = organism: Homo sapiens; assay: Selectivity ratio of IC50 for ROCK1 (unknown origin) to IC50 for ROCK2 (unknown origin)
[2] = target: Rho-associated protein kinase 1 (Homo sapiens, UniProt Q13464); assay: Inhibition of ROCK1 (unknown origin) using STK2 as substrate measured after 4 hrs by HTRF assay
[3] = target: Rho-associated protein kinase 2 (Homo sapiens, UniProt O75116); assay: Inhibition of ROCK2 (unknown origin) using STK2 as substrate measured after 4 hrs by HTRF assay
Rho-associated protein kinase 2, sequence (O75116 whole entry): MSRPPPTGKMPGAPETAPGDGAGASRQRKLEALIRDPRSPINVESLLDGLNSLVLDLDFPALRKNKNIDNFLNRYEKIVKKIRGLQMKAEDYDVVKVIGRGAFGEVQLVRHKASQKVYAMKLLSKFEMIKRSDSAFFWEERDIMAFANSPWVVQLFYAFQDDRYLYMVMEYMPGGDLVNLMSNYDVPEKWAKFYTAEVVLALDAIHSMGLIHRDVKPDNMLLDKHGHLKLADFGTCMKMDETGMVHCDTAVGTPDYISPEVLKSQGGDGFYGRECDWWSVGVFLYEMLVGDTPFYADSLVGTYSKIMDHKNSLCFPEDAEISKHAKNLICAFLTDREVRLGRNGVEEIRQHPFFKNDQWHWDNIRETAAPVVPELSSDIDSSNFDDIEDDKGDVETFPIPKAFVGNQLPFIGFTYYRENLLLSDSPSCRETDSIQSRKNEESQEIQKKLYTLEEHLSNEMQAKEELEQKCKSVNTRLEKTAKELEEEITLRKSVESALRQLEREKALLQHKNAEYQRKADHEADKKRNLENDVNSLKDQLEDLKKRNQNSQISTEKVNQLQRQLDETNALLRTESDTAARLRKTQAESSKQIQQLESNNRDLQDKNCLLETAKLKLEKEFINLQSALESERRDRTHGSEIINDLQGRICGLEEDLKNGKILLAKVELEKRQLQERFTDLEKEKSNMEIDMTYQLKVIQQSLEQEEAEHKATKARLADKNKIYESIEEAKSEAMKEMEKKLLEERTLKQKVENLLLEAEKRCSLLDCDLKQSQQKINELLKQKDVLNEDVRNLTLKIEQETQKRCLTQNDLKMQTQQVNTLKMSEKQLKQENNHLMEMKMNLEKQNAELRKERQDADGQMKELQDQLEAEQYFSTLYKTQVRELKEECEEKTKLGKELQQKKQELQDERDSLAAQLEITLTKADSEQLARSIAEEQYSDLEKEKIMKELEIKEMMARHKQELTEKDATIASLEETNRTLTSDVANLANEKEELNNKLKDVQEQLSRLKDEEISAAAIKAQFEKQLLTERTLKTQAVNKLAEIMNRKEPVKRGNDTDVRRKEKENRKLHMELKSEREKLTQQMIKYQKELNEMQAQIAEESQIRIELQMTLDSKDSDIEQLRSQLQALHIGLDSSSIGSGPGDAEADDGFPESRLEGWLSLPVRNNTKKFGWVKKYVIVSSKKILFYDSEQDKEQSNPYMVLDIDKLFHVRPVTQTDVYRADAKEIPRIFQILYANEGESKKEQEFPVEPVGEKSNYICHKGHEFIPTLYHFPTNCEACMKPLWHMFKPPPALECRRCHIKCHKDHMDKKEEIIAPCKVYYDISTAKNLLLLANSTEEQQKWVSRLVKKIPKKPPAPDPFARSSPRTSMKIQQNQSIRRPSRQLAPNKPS

Rho-associated protein kinase 1, sequence (Q13464 whole entry): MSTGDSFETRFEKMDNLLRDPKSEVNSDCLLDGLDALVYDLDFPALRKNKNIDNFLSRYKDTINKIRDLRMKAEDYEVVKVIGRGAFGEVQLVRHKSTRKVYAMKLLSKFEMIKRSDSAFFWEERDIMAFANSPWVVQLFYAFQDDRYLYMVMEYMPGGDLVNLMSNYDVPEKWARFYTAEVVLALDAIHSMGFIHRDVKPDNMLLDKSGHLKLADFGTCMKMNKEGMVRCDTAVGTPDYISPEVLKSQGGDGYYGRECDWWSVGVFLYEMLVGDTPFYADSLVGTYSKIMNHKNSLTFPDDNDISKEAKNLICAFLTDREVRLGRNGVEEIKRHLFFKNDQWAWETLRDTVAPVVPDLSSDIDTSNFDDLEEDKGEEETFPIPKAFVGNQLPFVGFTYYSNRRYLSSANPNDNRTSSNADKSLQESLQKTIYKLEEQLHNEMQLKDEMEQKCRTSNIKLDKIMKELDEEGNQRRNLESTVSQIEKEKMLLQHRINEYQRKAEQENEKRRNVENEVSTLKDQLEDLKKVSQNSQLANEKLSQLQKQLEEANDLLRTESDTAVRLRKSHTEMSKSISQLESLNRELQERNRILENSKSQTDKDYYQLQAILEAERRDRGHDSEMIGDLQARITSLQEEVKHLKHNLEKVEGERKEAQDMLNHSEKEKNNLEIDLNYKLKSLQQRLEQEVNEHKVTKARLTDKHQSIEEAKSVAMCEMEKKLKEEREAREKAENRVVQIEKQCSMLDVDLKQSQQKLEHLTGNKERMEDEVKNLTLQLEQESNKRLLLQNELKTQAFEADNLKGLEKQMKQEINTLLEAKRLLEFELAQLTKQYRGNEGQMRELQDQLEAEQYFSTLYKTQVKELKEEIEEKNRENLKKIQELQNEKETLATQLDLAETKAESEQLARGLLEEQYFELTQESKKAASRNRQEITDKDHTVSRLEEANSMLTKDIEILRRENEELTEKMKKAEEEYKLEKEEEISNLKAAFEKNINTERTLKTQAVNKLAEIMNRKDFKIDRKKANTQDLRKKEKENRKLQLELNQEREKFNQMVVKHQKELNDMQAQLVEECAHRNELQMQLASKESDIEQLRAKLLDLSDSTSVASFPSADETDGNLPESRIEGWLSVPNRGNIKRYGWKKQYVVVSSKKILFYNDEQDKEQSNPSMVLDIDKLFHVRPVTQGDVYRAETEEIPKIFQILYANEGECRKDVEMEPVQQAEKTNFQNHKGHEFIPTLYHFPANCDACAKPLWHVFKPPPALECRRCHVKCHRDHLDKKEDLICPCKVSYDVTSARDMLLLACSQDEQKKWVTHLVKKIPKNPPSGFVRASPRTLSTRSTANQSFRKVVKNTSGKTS

Ratio IC50 [1]	IC50 [2] [µM]	IC50 [3] [µM]	Structure (SMILES)
6.1	0.135	0.022	CN(C)CCOc1cc(-c2ccncc2)ccc1NC(=O)C1COc2ccc(Cl)cc2C1 (stereo not given)
4.3	0.03	0.007	CN(C)CCOc1cc(-c2ccncc2)ccc1NC(=O)C1COc2ccccc2C1 (stereo not given)
14.8	0.104	0.007	CN(C)CCOc1cc(-c2ccncc2)ccc1NC(=O)C1COc2ccc(F)cc2C1 (stereo not given)
3	0.523	0.172	COc1ccc2c(c1)C[C@@H](C(=O)Nc1ccc(-c3ccncc3)cc1OCCN(C)C)CO2
7	0.169	0.024	Cc1ccc2c(c1)CC(C(=O)Nc1ccc(-c3ccncc3)cc1OCCN(C)C)CO2 (stereo not given)
13.6	0.0163	0.0012	COc1ccc2c(c1)CC(C(=O)Nc1ccc(-c3c[nH]nc3C)cc1OCCN(C)C)CO2 (stereo not given)
–	0.0034	–	COc1ccc2c(c1)CC(C(=O)Nc1ccc(-c3cn[nH]c3)cc1OCCN(C)C)CO2 (stereo not given)
18.9	0.17	0.009	COc1ccc2c(c1)CC(C(=O)Nc1ccc(-c3ccncc3)cc1OCCN(C)C)CO2 (stereo not given)
22.7	0.068	0.003	COc1ccc2c(c1)C[C@H](C(=O)Nc1ccc(-c3ccncc3)cc1OCCN(C)C)CO2
